Results on five molecules are retold here after patent US20230270824A1, “INTERFERON-BASED CANCER TREATMENT METHOD AND PHARMACEUTICAL COMPOSITION” (XIAMEN AMOYTOP BIOTECH CO., LTD., priority 2019, published 2023).

Data set [1] relates to transplanted liver cancer H22. The data set can be described thus: Interferon combined with gemcitabine, transplanted liver cancer H22 in mice (Example 5). The format is in vivo, BALB/c mice. Particulars: gemcitabine only, 60 mg/kg i.p. once a week, 108 days observation. The procedure: In this example, a comparative study on the efficacy of PEG-mIFN-α4 intermittent administration (once every 48 hours for three consecutive times, then drug withdrawal for 144 hours; for 8 rounds), PEG-mIFN-α4 continuous administration (once every 48 hours for 42 consecutive times), PEG-mIFN-α4 in combination with gemcitabine (PEG-mIFN-α4: once every 48 hours for three consecutive times, then drug withdrawal for 240 hours, 6 rounds; gemcitabine: once a week) on H22 transplanted liver cancer in mice was performed.
(§1) On the day when the tumor was inoculated, they were randomly divided into PEG-mIFN-α4 continuous administration group (N=24, female 12, male 12), PEG-mIFN-α4 intermittent administration group (N=24, female 12, male 12), the normal saline control group (N=24, female 12, male 12), the gemcitabine only group (N=24, female 12, male 12), and PEG-mIFN-α4 combined with gemcitabine group (N=24, female 12, male 12).
Gemcitabine was injected intraperitoneally, 60 mg/kg.
(§2) For the PEG-mIFN-α4 intermittent administration group, PEG-mIFN-α4 was administered once every 48 hours for three consecutive times, then drug withdrawal for 144 hours; for 8 rounds. For the PEG-mIFN-α4 continuous administration group, PEG-mIFN-α4 was administered once every 48 hours. For the PEG-mIFN-α4 combined with gemcitabine group, PEG-mIFN-α4 was administered once every 48 hours for three consecutive times, then drug withdrawal for 240 hours; for 6 rounds; and gemcitabine was administered once a week. For the gemcitabine only group, gemcitabine was administered once a week. For the saline control group, equal volume of saline was administered.
(§3) Survival analysis was performed for all groups to compare the differences between groups.

For data set [2], the system named is transplanted lung cancer LLC. Briefly: Interferon combined with gemcitabine, transplanted lung cancer LLC in mice (Example 6). The format is in vivo, C57BL/6N mice. Particulars: gemcitabine only, 60 mg/kg i.p. once a week, Day 64 post tumor inoculation, 60 mg/kg. The procedure: In this example, a comparative study on the efficacy of PEG-mIFN-α4 intermittent administration (once every 48 hours for four consecutive times, then drug withdrawal for 192 hours; for 5 rounds), PEG-mIFN-α4 continuous administration (once every 48 hours for 32 consecutive times), PEG-mIFN-α4 in combination with gemcitabine (PEG-mIFN-α4: once every 48 hours for four consecutive times, then drug withdrawal for 360 hours, 4 rounds; gemcitabine: once a week) on transplanted […] LLC in mice was performed.
On the day when the tumor was inoculated, they were randomly divided into PEG-mIFN-α4 continuous administration group (N=26, female 13, male 13), PEG-mIFN-α4 intermittent administration group (N=26, female 13, male 13), the normal saline control group (N=26, female 13, male 13), the gemcitabine only group (N=26, female 13, male 13), and PEG-mIFN-α4 combined with gemcitabine group (N=26, female 13, male 13).
as §2, with “4” for “three”, “192” for “144”, “360” for “240”, “4” for “6”, “administered. Gemcitabine was injected intraperitoneally, 60 mg/kg.” for “administered.”
(§4) SAS9.4 software was used for comparing the difference in mortality, and the statistical tests were all two-sided tests.

The subject of data set [3] is transplanted colorectal cancer CT26. The data set can be described thus: Interferon combined with gemcitabine, transplanted colorectal cancer CT26 in mice (Example 7). The format is in vivo, BALB/c mice. Conditions: gemcitabine only, 60 mg/kg i.p. once a week, 110 days observation, 60 mg/kg. The procedure: In this example, a comparative study on the efficacy of PEG-mIFN-α4 intermittent administration (once every 48 hours for three consecutive times, then drug withdrawal for 144 hours; for 11 rounds), PEG-mIFN-α4 continuous administration (once every 48 hours for 55 consecutive times), PEG-mIFN-α4 in combination with gemcitabine (PEG-mIFN-α4: once every 48 hours for three consecutive times, then drug withdrawal for 240 hours, 8 rounds; gemcitabine: once a week) on transplanted colorectal cancer CT26 in mice was performed.
The anticancer agent is Gemcitabine (Jiangsu HAOSEN Pharmaceutical).
as §1
Gemcitabine was injected intraperitoneally, 60 mg/kg. […] For the PEG-mIFN-α4 intermittent administration group, PEG-mIFN-α4 was administered once every 48 hours for three consecutive times, then drug withdrawal for 144 hours; for 11 rounds. For the PEG-mIFN-α4 continuous administration group, PEG-mIFN-α4 was administered once every 48 hours. For the PEG-mIFN-α4 combined with gemcitabine group, PEG-mIFN-α4 was administered once every 48 hours for three consecutive times, then drug withdrawal for 240 hours; for 8 rounds; and gemcitabine was administered once a week. For the gemcitabine only group, gemcitabine was administered once a week. For the saline control group, equal volume of saline was administered.
as §3

The test system of data set [4] is transplanted melanoma B16. The data set can be described thus: Interferon combined with gemcitabine, transplanted melanoma B16 in mice (Example 8). The format is in vivo, C57BL/6N mice. Particulars: gemcitabine only, 60 mg/kg i.p. once a week, 48 days after tumor inoculation, 60 mg/kg. The procedure: In this example, a comparative study on the efficacy of PEG-mIFN-α4 intermittent administration (once every 48 hours for 3 consecutive times, then drug withdrawal for 240 hours; for 4 rounds), PEG-mIFN-α4 continuous administration (once every 48 hours for 24 consecutive times), PEG-mIFN-α4 in combination with gemcitabine (PEG-mIFN-α4: once every 48 hours for 3 consecutive times, then drug withdrawal for 240 hours, 4 rounds; gemcitabine: once a week) on transplanted melanoma B16 in mice was performed.
On the day when the tumor was inoculated, they were randomly divided into PEG-mIFN-α4 continuous administration group (N=28, female 14, male 14), PEG-mIFN-α4 intermittent administration group (N=28, female 14, male 14), the normal saline control group (N=28, female 14, male 14), the gemcitabine only group (N=28, female 14, male 14), and PEG-mIFN-α4 combined with gemcitabine group (N=28, female 14, male 14).
For the PEG-mIFN-α4 intermittent administration group, PEG-mIFN-α4 was administered once every 48 hours for 3 consecutive times, then drug withdrawal for 240 hours; for 4 rounds. For the PEG-mIFN-α4 continuous administration group, PEG-mIFN-α4 was administered once every 48 hours. For the PEG-mIFN-α4 combined with gemcitabine group, PEG-mIFN-α4 was administered once every 48 hours for 3 consecutive times, then drug withdrawal for 240 hours; for 4 rounds; and gemcitabine was administered once a week. For the gemcitabine only group, gemcitabine was administered once a week. For the saline control group, equal volume of saline was administered. Gemcitabine was injected intraperitoneally, 60 mg/kg.
as §4

The test system of data set [5] is transplanted breast cancer 4T1. Briefly: Interferon combined with gemcitabine, transplanted breast cancer 4T1 in mice (Example 9). The data set is classed as in vivo, BALB/c mice. Particulars: gemcitabine only, 60 mg/kg i.p. once a week, 53 days after tumor inoculation, 60 mg/kg. Here is the method:
In this example, a comparative study on the efficacy of PEG-mIFN-α4 intermittent administration (once every 48 hours for 3 consecutive times, then drug withdrawal for 144 hours; for 5 rounds), PEG-mIFN-α4 continuous administration (once every 48 hours for 25 consecutive times), PEG-mIFN-α4 in combination with gemcitabine (PEG-mIFN-α4: once every 48 hours for 3 consecutive times, then drug withdrawal for 240 hours, 4 rounds; gemcitabine: once a week) on transplanted breast cancer 4T1 in mice was performed.
as §1
For the PEG-mIFN-α4 intermittent administration group, PEG-mIFN-α4 was administered once every 48 hours for 3 consecutive times, then drug withdrawal for 144 hours; for 5 rounds. For the PEG-mIFN-α4 continuous administration group, PEG-mIFN-α4 was administered once every 48 hours. For the PEG-mIFN-α4 combined with gemcitabine group, PEG-mIFN-α4 was administered once every 48 hours for 3 consecutive times, then drug withdrawal for 240 hours; for 4 rounds; and gemcitabine was administered once a week. For the gemcitabine only group, gemcitabine was administered once a week. For the saline control group, equal volume of saline was administered. Gemcitabine was injected intraperitoneally, 60 mg/kg.
as §4

The subject of data set [6] is transplanted liver cancer H22. The data set can be described thus: Interferon combined with epirubicin, transplanted liver cancer H22 in mice (Example 10). Conditions: epirubicin only, 3.5 mg/kg/w i.p. The data set is classed as in vivo, BALB/c mice. An excerpt:
The manufacturer of epirubicin was Beijing Union Pharmaceutical Factory.
Statistical tests were all two-sided tests.

The subject of data set [7] is transplanted liver cancer H22. Conditions: paclitaxel only, 10 mg/kg/w.
Method: In this example, BALB/c mice were purchased from Beijing Vital River Laboratory Animal Technology Co., Ltd., and the H22 mouse liver cancer cell line was purchased from the China Center for Type Culture Collection (CCTCC). The manufacturer of paclitaxel was Qilu Pharmaceutical (Hainan) Co., Ltd.
6-8 weeks old, 18-22 g SPF grade BALB/c mice were subcutaneously inoculated with liver cancer H22 tumor cells (1×10^6 cells/mL, 0.2 ml/mouse) in the right forelimb axillary. 3 days after tumor inoculation, they were randomly divided into groups, with 28 mice in each group (fifty-fifty female and male mice), including normal saline control group, paclitaxel only group, and PEG-mIFN-α4 combined with paclitaxel group.
The administration was started on the day after grouping, once a week. PEG-mIFN-α4 was injected subcutaneously on the back of the neck, in a dose of 1 mg/mouse each time, and oxaliplatin was injected intraperitoneally, in a dose of 10 mg/kg each time.
All groups were subjected to survival curve analysis, and the median survival time was compared. SAS 9.4 and office2010 software were used for statistical analysis. Statistical tests were all two-sided tests.
Data set [8] relates to transplanted liver cancer H22. Particulars: oxaliplatin only, 10 mg/kg/w i.p.
Method: 6-8 weeks old, 18-22 g SPF grade BALB/c mice were subcutaneously inoculated with liver cancer H22 tumor cells (1×10^6 cells/mL, 0.2 ml/mouse) in the right forelimb axillary. 3 days after tumor inoculation, they were randomly divided into groups, with 28 mice in each group (fifty-fifty female and male mice), including normal saline control group, oxaliplatin only group, and PEG-mIFN-α4 combined with oxaliplatin group.
The administration was started on the day after grouping, once a week. PEG-mIFN-α4 was injected subcutaneously on the back of the neck, and oxaliplatin was injected intraperitoneally, in a dose of 10 mg/kg each time. The normal saline control group was administered an equal volume of normal saline.
All groups were subjected to survival curve analysis, and the median survival time was compared.
In data set [9] the test system is mouse fibroblast/encephalomyocarditis virus (L929/EMCV). Briefly: Specific activity by mouse fibroblast/encephalomyocarditis virus (L929/EMCV) cytopathic inhibition method. The format is cell-based. Particulars: stock solution; commercial mIFN-α4 (R&D) as the standard. The procedure:
The bacterial endotoxin content of the deglycosylated mIFN-α4 stock solution was determined by the Limulus reagent method as lower than 60 EU/mg. specific activity was determined as 5.4×10^8 U/mg by using the commercial mIFN-α4 (R&D, catalog number 12115-1) as the standard, and by using the mouse fibroblast/encephalomyocarditis virus (L929/EMCV) cytopathic inhibition method.
The bacterial endotoxin content of the PEG-mIFN-α4 stock solution was determined by the Limulus reagent method as lower than 15 EU/mg. Specific activity was determined as 6.1×10^6 U/mg by using the commercial mIFN-α4 (R&D, catalog number 12115-1) as the standard, and by using the mouse fibroblast/encephalomyocarditis virus (L929/EMCV) cytopathic inhibition method.
(Damage to the host cells serves as the signal in cytopathic effect assays.)

Read-outs that look alike come from different tables or passages of the source.

Consider `Nc1ccn([C@@H]2O[C@H](CO)[C@@H](O)C2(F)F)c(=O)n1` [Gemcitabine, reference compound], for which the “Mean survival period (days post tumor inoculation)” value in data set [1] was 58.5 days; in [3] it was 99.0 days; in data set [3] (listed as gemcitabine), 89.0 days. Also, the Mortality in data set [2] was 80.8%; in data set [2] (listed as gemcitabine), 80.8%; in [4] it was 89.3%; in data set [4] (listed as gemcitabine) it was 89.3%; in data set [5], 87.5%; in [5] (listed as gemcitabine), 87.5%.
With `COc1cccc2c1C(=O)c1c(O)c3c(c(O)c1C2=O)C[C@@](O)(C(=O)CO)C[C@@H]3O[C@H]1C[C@H](N)[C@@H](O)[C@H](C)O1` [Epirubicin], the “Median survival period (Time after tumor inoculation, days)” value (from here on “Median survival period”) in [6] is 15.0 days; in data set [6] (listed as epirubicin), 15 days.
With `CC(=O)O[C@H]1C(=O)[C@@]2(C)[C@H]([C@H](OC(=O)c3ccccc3)[C@]3(O)C[C@H](OC(=O)[C@H](O)[C@@H](NC(=O)c4ccccc4)c4ccccc4)C(C)=C1C3(C)C)[C@]1(OC(C)=O)CO[C@@H]1C[C@@H]2O` [Paclitaxel], the “Median survival period” value in data set [7] is 17.0 days; in [7] (listed as paclitaxel) it was 17 days.
Consider `O=C1[O][Pt]2([NH][C@@H]3CCCC[C@H]3[NH]2)[O]C1=O` [Oxaliplatin], for which the “Median survival period” value in data set [8] worked out at 12.5 days.

B1: deglycosylated mIFN-α4: recombinant mouse interferon α4 (GenBank NP_034634) expressed in Pichia pastoris, glycosyl groups removed by glycosidase (protein, UniProt P07351 25-186, looked up)
Interferon alpha-4: CDLPHTYNLGNKRALTVLEEMRRLPPLSCLKDRKDFGFPLEKVDNQQIQKAQAILVLRDLTQQILNLFTSKDLSATWNATLLDSFCNDLHQQLNDLKACVMQEPPLTQEDSLLAVRTYFHRITVYLRKKKHSLCAWEVIRAEVWRALSSSTNLLARLSEEKE
modifications: deglycosylated
notes: recombinant mouse interferon α4 (GenBank NP_034634) expressed in Pichia pastoris, glycosyl groups removed by glycosidase
As to B1, the Specific activity in data set [9] was 5.4×10^8 U/mg.
